Data set [1] relates to Mus musculus. As to the kind of experiment: Compound was evaluated for antidepressant activity measured by tetrabenazine (TBZ) induced exploratory activity in mice after 60 mg/kg intraperitoneal administration; inactive. The format is functional, organism-based. Further details: dose 60 mg/kg.
For data set [2], the system named is Mus musculus. Description: Compound was evaluated for antidepressant activity measured by tetrabenazine (TBZ) induced ptosis in mice after 60 mg/kg intraperitoneal administration; inactive. Further details: dose 60 mg/kg. The format is functional, organism-based.
Data set [3] concerns Mus musculus. Description: Antidepressant activity measured by maximal electroshock seizure threshold (MEST) assay in TBZ treated mice after ip administration. The format is functional. (In general: Protection in the maximal electroshock model is a classic sign of anticonvulsant action.)
In data set [4] the test system is Mus musculus. As to the kind of experiment: Antidepressant activity measured by maximal electroshock seizure threshold (MEST) assay in untreated mice after ip administration. It is filed as functional.
For data set [5], the species on record is Mus musculus. As to the kind of experiment: Antidepressant activity measured by effects on […] (TBZ) inhibited exploratory activity. The format is functional.
Data set [6] has as its system Mus musculus. Description: Antidepressant activity measured by tetrabenazine (TBZ) induced ptosis in mice after intraperitoneal administration. The format is functional. The settings on record: ip.
The nature of data set [7]: Compound was evaluated for 50% lethal dose in mice; LD50 range is 100-300. It is filed as ADME, organism-based. Conditions: mouse, in vivo.
The nature of data set [8]: Compound was evaluated for 50% lethal dose in mice; LD50 range 30-100 mg/kg. It is filed as ADME, organism-based. Conditions: mouse, in vivo.
The nature of data set [9]: Compound was evaluated for 50% lethal dose in mice; LD50 range 300-1000 mg/kg. It is filed as ADME, organism-based. The settings on record: mouse, in vivo.
A short description of data set [10]: Compound was evaluated for 50% lethal dose in mice; LD50 range is 30-100. It is filed as ADME, organism-based. Conditions: mouse, in vivo.
The test system of data set [11] is Mus musculus. As to the kind of experiment: Compound was evaluated for antidepressant activity measured by tetrabenazine (TBZ) induced exploratory activity in mice after 30 mg/kg intraperitoneal administration; inactive. It is filed as functional, organism-based. Further details: dose 30 mg/kg.
Data set [12] has as its system Mus musculus. As to the kind of experiment: Compound was evaluated for antidepressant activity measured by tetrabenazine (TBZ) induced ptosis in mice after 30 mg/kg intraperitoneal administration; inactive. The format is functional, organism-based. Further details: dose 30 mg/kg.
Data set [13] has as its system Mus musculus. As to the kind of experiment: Meso form was evaluated for antidepressant activity measured by tetrabenazine (TBZ) induced exploratory activity in mice after intraperitoneal administration. It is filed as functional. Conditions: ip.
In data set [14] the test system is Mus musculus. Description: Meso form was evaluated for antidepressant activity measured by tetrabenazine (TBZ) induced ptosis in mice after intraperitoneal administration (Two diastereomers (7/6) were present). It is filed as functional. Conditions: ip.
For data set [15], the system named is Mus musculus. As to the kind of experiment: dl form was evaluated for antidepressant activity measured by tetrabenazine (TBZ) induced exploratory activity in mice after intraperitoneal administration. The settings on record: ip. The format is functional.
The test system of data set [16] is Mus musculus. Description: dl form was evaluated for antidepressant activity measured by tetrabenazine (TBZ) induced ptosis in mice after intraperitoneal administration. The format is functional. Conditions: ip.
Data set [17] can be described thus: Compound was evaluated for 50% lethal dose in mice; LD50 range 100-300 mg/kg. The format is ADME, organism-based. Conditions: mouse, in vivo.
In data set [18] the test system is Mus musculus. As to the kind of experiment: Compound was evaluated for antidepressant activity measured by tetrabenazine (TBZ) induced exploratory activity in mice after 30 mg/kg intraperitoneal administration; Inactive. It is filed as functional, organism-based. On the set-up: dose 30 mg/kg.
In data set [19] the test system is Mus musculus. As to the kind of experiment: Compound was evaluated for antidepressant activity measured by tetrabenazine (TBZ) induced ptosis in mice after 30 mg/kg intraperitoneal administration; Inactive. It is filed as functional, organism-based. Further details: dose 30 mg/kg.
Data set [20] relates to Mus musculus. As to the kind of experiment: Compound was evaluated for antidepressant activity measured by tetrabenazine (TBZ) induced ptosis in mice after 10 mg/kg intraperitoneal administration; Inactive. It is filed as functional, organism-based. On the set-up: dose 10 mg/kg.
The subject of data set [21] is Mus musculus. Description: Compound was evaluated for antidepressant activity measured by tetrabenazine (TBZ) induced exploratory activity in mice after 60 mg/kg intraperitoneal administration; Inactive. It is filed as functional, organism-based. On the set-up: dose 60 mg/kg.
The test system of data set [22] is Mus musculus. Description: Compound was evaluated for antidepressant activity measured by tetrabenazine (TBZ) induced ptosis in mice after intraperitoneal administration; Lethal at 60 Mg/kg. It is filed as functional. Conditions: ip.
The test system of data set [23] is Mus musculus. As to the kind of experiment: Compound was evaluated for antidepressant activity measured by tetrabenazine (TBZ) induced exploratory activity in mice after 30 mg/kg intraperitoneal administration. The format is functional. The settings on record: ip.
The subject of data set [24] is Mus musculus. Description: Compound was evaluated for antidepressant activity measured by tetrabenazine (TBZ) induced ptosis in mice after 30 mg/kg intraperitoneal administration. It is filed as functional. Conditions: ip.

Calls of active or inactive are those of the source.

In general, ED50 refers to the midpoint of the dose-response relation. As to `COc1ccc(C(CN(CCO)CCO)c2ccc(OC)cc2)cc1`, the ED50 entry in data set [1] and in data set [2] was “inactive” each time.

The term LD50 denotes the dose expected to kill half of the subjects tested. Low readings indicate a more toxic substance, high ones a less toxic substance. As for `c1ccc2c(c1)cc1n2CCCNC1` [AZEPINDOLE], the ED50 in data set [3] came to 32 mg/kg; in data set [4], 46 mg/kg; in [5] it was 11 mg/kg; in data set [6], 9 mg/kg. For the same compound, in data set [7], the LD50 turned out to be 100 mg/kg.

Consider `NCC(O)(c1ccccc1)c1ccccc1`, for which the ED50 is 9.9 mg/kg in data set [3], 8.1 mg/kg in [4], 9 mg/kg in data set [5] and 6 mg/kg in data set [6]. In data set [8], this compound showed an LD50 of 100 mg/kg.

With `OCCN(CCO)CCc1ccccc1`, the ED50 in data set [3] was more than 50 mg/kg; in [4] it was more than 50 mg/kg; in [5], 17 mg/kg; in data set [6], 12 mg/kg. Also, in [9], the median lethal dose (LD50) came to 1000 mg/kg.

In the case of `CN(C)CC(c1ccccc1)c1ccccc1`, the ED50 in data set [3] turned out to be 3 mg/kg; in data set [4], 7 mg/kg; in data set [5] it was 9 mg/kg; in data set [6], 2.5 mg/kg. For the same compound, the LD50 in data set [10] was determined as 100 mg/kg.

With `OCCN(CCO)CC(c1ccccc1)C1CCCCC1` (configuration not stated), the ED50 in data set [5] is approximately 50 mg/kg; in data set [6] it was 22 mg/kg.

As to `COc1ccc(C(CN(CCO)CCO)c2ccc(OC)c(OC)c2)cc1OC`, the ED50 entry in data set [1] and in data set [2] was “inactive” throughout.

Turning to `CN(C)CCCN1c2ccccc2CCc2ccccc21` [IMIPRAMINE], the ED50 amounted to 14.9 mg/kg in data set [3], 20.3 mg/kg in data set [4], 1.3 mg/kg in data set [5] and 0.9 mg/kg in [6].

Regarding `CC(=O)OCCN(CCOC(C)=O)CC(c1ccccc1)c1ccccc1`, the results for the ED50 in data set [5] and in data set [6] were 23 mg/kg and 13 mg/kg, respectively.

Turning to `OCCN(CCO)CC(c1cccs1)c1cccs1`, the ED50 entry in [11] and in [12] was “inactive” in each case.

With `CN(C)CC(c1ccc(Cl)cc1)c1ccc(Cl)cc1`, the ED50 was found to be 11 mg/kg in data set [5] and 16 mg/kg in data set [6].

For `COc1ccc(C(CN)c2ccccc2)cc1OC` (configuration not stated), the ED50 entry in data set [11] and in data set [12] was “inactive” each time.

Regarding `CC(O)CN(CC(C)O)CC(c1ccccc1)c1ccccc1` (configuration not stated), the ED50 amounted to 18 mg/kg in [13], 7 mg/kg in data set [14], 11 mg/kg in [15] and 6 mg/kg in data set [16].

`OCCN(CCO)CCC(c1ccccc1)c1ccccc1`: the ED50 in [5] came to 24 mg/kg; in data set [6], 20 mg/kg.

`OCCN(CCO)CC(c1ccccc1)c1ccccc1`: the values for the median effective dose (ED50) in data set [3], in data set [4] and in [6] were 15.4 mg/kg, 20.3 mg/kg and 2 mg/kg, respectively. Also, the LD50 in data set [17] was 300 mg/kg.

As to `NCC(c1ccc(Cl)cc1)c1ccc(Cl)cc1`, the ED50 entry in [18] and in [19] was “inactive” in each case.

Consider `COc1ccc(C(CN)c2ccc(OC)c(OC)c2)cc1OC`, for which the ED50 result in data set [1] and in data set [2] was “inactive” throughout.

`NCC(c1ccccc1)c1ccccc1`: the ED50 in [3] was more than 15 mg/kg; in data set [4], 10 mg/kg; in data set [5], 1.8 mg/kg; in [6] it was 1.7 mg/kg. In data set [10], this compound yielded a 50% lethal dose (LD50) of 30 mg/kg.

Turning to `CC(N)C(c1ccccc1)c1ccccc1` (configuration not stated), the values for the ED50 in [5] and in [6] were 3.5 mg/kg and 3.8 mg/kg, respectively.

For `CCNCCC(c1ccccc1)c1ccccc1`, the ED50 in [5] was found to be 15 mg/kg; in data set [6], 23 mg/kg.

In the case of `COc1ccc(C(CN(CCO)CCO)c2ccccc2)cc1OC` (configuration not stated), the ED50 result in data set [1] and in data set [2] was “inactive” each time.

As for `NCC(F)(c1ccccc1)c1ccccc1`, the ED50 entry in data set [18] and in [20] was “inactive” in each case.

On to `COc1ccc(C(CN(C)C)c2ccccc2)cc1OC` (configuration not stated), for which the ED50 entry in [11] is “inactive”. This compound also gave an ED50 in data set [6] of 14 mg/kg.

Take `CNCC(c1ccccc1)c1ccccc1`: the ED50 in data set [3] came out at 9 mg/kg; in data set [4], 8.2 mg/kg; in data set [5] it was 5 mg/kg; in data set [6], 2.3 mg/kg. Besides, the LD50 in [10] is 30 mg/kg.

As for `COc1ccc(C(CN)c2ccc(OC)cc2)cc1`, the ED50 result in [21] was “inactive”. The same compound showed a median effective dose (ED50) in data set [22] of more than 10 mg/kg.

With `OCCN(CCO)C(Cc1ccccc1)c1ccccc1` (configuration not stated), the ED50 entry in data set [11] and in [12] was “inactive” throughout.

Consider `CNCC(c1ccccc1)c1ccc(OC)c(OC)c1` (configuration not stated), for which the ED50 in data set [5] is more than 30 mg/kg; in [6], 11 mg/kg.

With `OCCN(CCO)CC(O)(c1ccccc1)c1ccccc1`, the ED50 in data set [5] came out at 80 mg/kg; in [6] it was 8 mg/kg.

Consider `CNCC(c1ccc(Cl)cc1)c1ccc(Cl)cc1`, for which the ED50 in data set [23] amounted to 14 mg/kg; in data set [24] it was 13 mg/kg.

Regarding `CCN(CCO)CCC(c1ccccc1)c1ccccc1`, the ED50 is 21.4 mg/kg in [3], more than 25 mg/kg in data set [4], 10 mg/kg in [5] and 1.9 mg/kg in [6]. In data set [17], the LD50 was 300 mg/kg.

The values above are taken from ChEMBL document CHEMBL1122811, “Structure-activity studies on antidepressant 2,2-diarylethylamines” (J Med Chem, 1984).
